Test results from US6172038A, “Antipathogenic peptides and compositions comprising them” (priority 1996, dated 2001).
Where no end group is shown, it is not given here. [ ]: non-standard residue; d: D form.

Tests used:
Bacillus megaterium Bm11 = test: Antibacterial activity (MIC), growth inhibition in 96-well plates; assay type: cell-based; settings: 100% inhibition of growth after 18-20 h at 37° C.
[1] = tested on: Acinetobacter calcoaceticus Ac11; test: as above; assay type: cell-based; settings: 100% inhibition of growth after 18-20 h at 37° C.
[2] = tested on: human red blood cells (hRBC); test: Hemolysis of human red blood cells; assay type: cell-based; settings: for % hemolysis at 50 μM peptide / % hemolysis at 100 μM: 30 min at 37° C.; for hemolytic activity (dose response): up to maximum concentration tested (50 μM)
Protocol: (ix) Hemolysis of human red blood cells. The peptides were tested for their hemolytic activities against human red blood cells (hRBC). Fresh hRBC with EDTA were rinsed 3 times with PBS (35 mM phosphate buffer/0.15 M NaCl, pH 7.3) by centrifugation for 10 min at 800 g and resuspended in PBS. Peptides dissolved in PBS were then added to 50 μL of a solution of the stock hRBC in PBS to reach a final volume of 100 μL (final erythrocyte concentration, 5% v/v). The resulting suspension was incubated under agitation for 30 min at 37° C. The samples were then centrifuged at 800 g for 10 min. Release of hemoglobin was monitored by measuring the absorbance of the supernatant at 540 nm. Controls for zero hemolysis (blank) and 100% hemolysis consisted of hRBC suspended in PBS and Triton 1%, respectively.

Escherichia coli D21 = test: Antibacterial activity (MIC), growth inhibition in 96-well plates; assay type: cell-based; settings: 100% inhibition of growth after 18-20 h at 37° C.
[3] = Membrane permeation, diffusion potential assay; settings: zwitterionic vesicles
Protocol: (xi) Membrane permeation induced by the peptides. Membrane permeation was assessed utilizing the diffusion potential assay (Loew et al., 1983; Sims et al., 1974) as previously described (Shai et al., 1991). In a typical experiment, in a glass tube, 4 μl of a liposomes suspension (final phospholipids concentration of 33 μM), in a K^+ containing buffer (50 mM K2 SO4, 25 mM HEPES-SO4^-2, pH 6.8), was diluted in 1 ml of an isotonic K^+ free buffer (50 mM Na2 SO4, 25 mM HEPES-SO4^-2, pH 6.8), and the fluorescent, potential-sensitive dye diS-C2 -5 was then added. Valinomycin (1 μl of 10^-7 M) was added to the suspension in order to slowly create a negative diffusion potential inside the vesicles, which led to a quenching of the dye's fluorescence. Once the fluorescence had stabilized, which took 3-10 minutes, peptides were added. The subsequent dissipation of the diffusion potential, as reflected by an increase in fluorescence, was monitored on a Perkin Elmer LS-50B spectrofluorometer, with the excitation set at 620 nm, the emission at 670 nm, and the gain adjusted to 100%. The percentage of fluorescence recovery, Ft, was defined as:
where I0 =the initial fluorescence, If =the total fluorescence observed before the addition of valinomycin, and It =the fluorescence observed after adding the peptide at time t.

[4] = phosphatidylglycerol/phosphatidylcholine (Beschiaschvili and Seelig, 1990); cited from earlier work

Molecule: Gly-Phe-Phe-Ala-Leu-Ile-Pro-Lys-Ile-Ile-Ser-Ser-Pro-Leu-Phe-Lys-Thr-Leu-Leu-Ser-Ala-Val-(NH--CH2 --CH2 --NH2)2 (GFFALI[dP]KIISSPLFKTLLSAV; not fully specified (C-terminus); printed as Gly-Phe-Phe-Ala-Leu-Ile-Pro-Lys-Ile-Ile-Ser-Ser-Pro-Leu-Phe-Lys-Thr-Leu-Leu-Ser-Ala-Val-(NH—$CH_2$—$CH_2$—$NH_2$)$_2$; also: C-terminus written (NH--CH2--CH2--NH2)2) [Peptide 2]
- Minimal Inhibitory Concentration B. megaterium (Bm11) (Bacillus megaterium Bm11): 2.5 µM
- Minimal Inhibitory Concentration A. calcoaceticus (Ac11) [1]: 12.5 µM
- % hemolysis at 50 μM peptide [2]: 0%
- Minimal Inhibitory Concentration E. coli (D21) (Escherichia coli D21): 12.5 µM

Molecule: CC[C@@H](C)[C@@H](NC(=O)[C@H](CC(C)C)NC(=O)[C@H](C)NC(=O)[C@@H]1CCCN1C(=O)[C@H](CC(C)C)NC(=O)CNC(=O)[C@@H](NC(=O)[C@@H](NC(=O)[C@H](CC(C)C)NC(=O)[C@H](NC(=O)[C@H](CCCCN)NC(=O)[C@H](CC(C)C)NC(=O)[C@H](NC(=O)[C@H](C)NC(=O)CNC(=O)[C@@H](NC(=O)CN)[C@@H](C)CC)C(C)C)C(C)C)[C@@H](C)O)[C@@H](C)O)C(=O)N[C@@H](CO)C(=O)N[C@@H](Cc1c[nH]c2ccccc12)C(=O)N[C@H](C(=O)N[C@H](CCCCN)C(=O)N[C@@H](CCCNC(=N)N)C(=O)N[C@@H](CCCCN)C(=O)N[C@@H](CCCNC(=N)N)C(=O)N[C@@H](CCC(N)=O)C(=O)N[C@@H](CCC(N)=O)C(=O)O)[C@@H](C)CC [Peptide 19]
- hemolytic activity (dose response) [2]: practically devoid of hemolytic activity

Molecule: KLLLKLLK [Peptide 29]
- Minimal Inhibitory Concentration B. megaterium (Bm11) (Bacillus megaterium Bm11): 3 µM
- % hemolysis at 100 μM [2]: 0%
- Minimal Inhibitory Concentration E. coli (D21) (Escherichia coli D21): 3 µM

Molecule: (Lys-Leu-Leu-Leu-Lys-Leu-Lys-Leu-Lys-Leu-Leu-Lys-Cys-NH2)5 Lys-Leu-Leu-Leu-Lys-Leu-Leu-Leu-Lys-Leu-Leu-Lys-NH2 [Peptide 93]
- Minimal Inhibitory Concentration B. megaterium (Bm11) (Bacillus megaterium Bm11): 0.02 µM
- % hemolysis at 100 μM [2]: 0%
- Minimal Inhibitory Concentration E. coli (D21) (Escherichia coli D21): 0.1 µM

Molecule: (Lys-Leu-Leu-Leu-Lys-Leu-Leu-Leu-Lys-Leu-Leu-Lys-Cys-NH2)5 Lys-Leu-Leu-Leu-Lys-Leu-Leu-Leu-Lys-Leu-Leu-Lys-NH2 [Peptide 92]
- Minimal Inhibitory Concentration B. megaterium (Bm11) (Bacillus megaterium Bm11): 0.05 µM
- % hemolysis at 100 μM [2]: 0%
- Minimal Inhibitory Concentration E. coli (D21) (Escherichia coli D21): 0.2 µM

Molecule: CC(C)C[C@H](NC(=O)[C@H](CCCCN)NC(=O)[C@@H](CC(C)C)NC(=O)[C@@H](CC(C)C)NC(=O)[C@H](CC(C)C)NC(=O)[C@@H](N)CCCCN)C(=O)N[C@@H](CCCCN)C(=O)N[C@H](CC(C)C)C(=O)N[C@@H](CCCCN)C(=O)N[C@H](CC(C)C)C(=O)N[C@@H](CC(C)C)C(=O)N[C@@H](CCCCN)C(N)=O [Peptide 24]
- hemolytic activity (in words) [2]: devoid of hemolytic activity

Molecule: CC[C@H](C)[C@H](NC(=O)CN)C(=O)NCC(=O)N[C@@H](C)C(=O)N[C@H](C(=O)N[C@@H](CC(C)C)C(=O)N[C@@H](CCCCN)C(=O)N[C@H](C(=O)N[C@@H](CC(C)C)C(=O)N[C@H](C(=O)N[C@H](C(=O)NCC(=O)N[C@@H](CC(C)C)C(=O)N1CCC[C@H]1C(=O)N[C@@H](C)C(=O)N[C@@H](CC(C)C)C(=O)N[C@H](C(=O)N[C@@H](CO)C(=O)N[C@@H](Cc1c[nH]c2ccccc12)C(=O)N[C@H](C(=O)N[C@@H](CCCCN)C(=O)N[C@@H](CCCNC(=N)N)C(=O)N[C@@H](CCCCN)C(=O)N[C@@H](CCCNC(=N)N)C(=O)N[C@@H](CCC(N)=O)C(=O)N[C@@H](CCC(N)=O)C(N)=O)[C@@H](C)CC)[C@@H](C)CC)[C@@H](C)O)[C@@H](C)O)C(C)C)C(C)C [Melittin, reference compound]
- % hemolysis at 50 μM peptide [2]: 100%
- hemolytic activity (dose response) [2]: the most hemolytic
- membrane permeating activity with PC vesicles [3]: highly active
- surface partition coefficient reported for melittin [4]: 4.5±0.6×10^4 M^-1

Molecule: CC[C@H](C)[C@H](NC(=O)[C@H](CCCCN)NC(=O)[C@@H]1CCCN1C(=O)[C@@H](NC(=O)[C@H](CC(C)C)NC(=O)[C@H](C)NC(=O)[C@H](Cc1ccccc1)NC(=O)[C@H](Cc1ccccc1)NC(=O)CN)[C@@H](C)CC)C(=O)N[C@H](C(=O)N[C@@H](CO)C(=O)N[C@@H](CO)C(=O)N1CCC[C@H]1C(=O)N[C@@H](CC(C)C)C(=O)N[C@@H](Cc1ccccc1)C(=O)N[C@@H](CCCCN)C(=O)N[C@H](C(=O)N[C@@H](CC(C)C)C(=O)N[C@@H](CC(C)C)C(=O)N[C@@H](CO)C(=O)N[C@@H](C)C(=O)N[C@H](C(=O)NCC(=O)N[C@@H](CO)C(=O)N[C@@H](C)C(=O)N[C@@H](CC(C)C)C(=O)N[C@@H](CO)C(=O)N[C@@H](CO)C(=O)N[C@@H](CO)C(=O)NCC(=O)NCC(=O)N[C@@H](CCC(N)=O)C(=O)N[C@@H](CCC(=O)NCCN)C(=O)NCCN)C(C)C)[C@@H](C)O)[C@@H](C)CC [Peptide 8, TApar]
- hemolytic activity (dose response) [2]: the most hemolytic

Molecule: KLLLLK [Peptide 28]
- Minimal Inhibitory Concentration B. megaterium (Bm11) (Bacillus megaterium Bm11): 50 µM
- % hemolysis at 100 μM [2]: 0%
- Minimal Inhibitory Concentration E. coli (D21) (Escherichia coli D21): 200 µM

Molecule: Lys-Lys-Gly-Phe-Phe-Ala-Leu-lle-Er-Lys-Ile-Ile-Ser-Ser-Pro-Leu-Phe-Lys-Thr- Leu-Leu-Ser-Ala-Val-(NH--CH2 --CH2 --NH2)2 [Peptide 5]
- Minimal Inhibitory Concentration B. megaterium (Bm11) (Bacillus megaterium Bm11): 0.75 µM
- Minimal Inhibitory Concentration A. calcoaceticus (Ac11) [1]: 3.5 µM
- % hemolysis at 50 μM peptide [2]: 0%
- Minimal Inhibitory Concentration E. coli (D21) (Escherichia coli D21): 3.5 µM

Molecule: Lys-Gly-Phe-Phe-Ala-Leu-Ile-Pro-Lys-Ile-Ile-Ser-Ser-Pro-Leu-Phe-Lys-Thr-Leu-Leu-Ser-Ala-Val-(NH--CH2 --CH2 --NH2)2 (KGFFALI[dP]KIISSPLFKTLLSAV; not fully specified (C-terminus); printed as Lys-Gly-Phe-Phe-Ala-Leu-Ile-Pro-Lys-Ile-Ile-Ser-Ser-Pro-Leu-Phe-Lys-Thr-Leu-Leu-Ser-Ala-Val-(NH—$CH_2$—$CH_2$—$NH_2$)$_2$; also: D-Pro7 (position 7 is Ile), C-terminus written (NH--CH2--CH2--NH2)2) [Peptide 4]
- Minimal Inhibitory Concentration B. megaterium (Bm11) (Bacillus megaterium Bm11): 1.5 µM
- Minimal Inhibitory Concentration A. calcoaceticus (Ac11) [1]: 7.5 µM
- % hemolysis at 50 μM peptide [2]: 0%
- Minimal Inhibitory Concentration E. coli (D21) (Escherichia coli D21): 7.5 µM

Molecule: CC[C@H](C)[C@H](NC(=O)[C@H](CCCCN)NC(=O)[C@H]1CCCN1C(=O)[C@@H](NC(=O)[C@H](CC(C)C)NC(=O)[C@H](C)NC(=O)[C@H](Cc1ccccc1)NC(=O)[C@H](Cc1ccccc1)NC(=O)CN)[C@@H](C)CC)C(=O)N[C@H](C(=O)N[C@@H](CO)C(=O)N[C@@H](CO)C(=O)N1CCC[C@H]1C(=O)N[C@@H](CC(C)C)C(=O)N[C@@H](Cc1ccccc1)C(=O)N[C@@H](CCCCN)C(=O)N[C@H](C(=O)N[C@H](CC(C)C)C(=O)N[C@H](CC(C)C)C(=O)N[C@@H](CO)C(=O)N[C@@H](C)C(=O)N[C@H](C(=O)NCC(=O)N[C@@H](CO)C(=O)N[C@@H](C)C(=O)N[C@@H](CC(C)C)C(=O)N[C@@H](CO)C(=O)N[C@@H](CO)C(=O)N[C@@H](CO)C(=O)NCC(=O)NCC(=O)N[C@@H](CCC(N)=O)C(=O)N[C@@H](CCC(=O)NCCN)C(=O)NCCN)C(C)C)[C@@H](C)O)[C@@H](C)CC [Peptide 1]
- hemolytic activity (dose response) [2]: practically devoid of hemolytic activity

Molecule: CC(C)C[C@H](NC(=O)[C@H](CC(C)C)NC(=O)[C@@H](CC(C)C)NC(=O)[C@@H](CC(C)C)NC(=O)[C@H](CC(C)C)NC(=O)[C@@H](N)CCCCN)C(=O)N[C@@H](CCCCN)C(=O)N[C@H](CC(C)C)C(=O)N[C@@H](CC(C)C)C(=O)N[C@H](CC(C)C)C(=O)N[C@@H](CC(C)C)C(=O)N[C@@H](CCCCN)C(N)=O [Peptide 22]
- hemolytic activity (in words) [2]: considerable hemolytic activity

Molecule: CC(C)C[C@H](NC(=O)[C@H](CCCCN)NC(=O)[C@@H](CC(C)C)NC(=O)[C@@H](CC(C)C)NC(=O)[C@H](CC(C)C)NC(=O)[C@@H](N)CCCCN)C(=O)N[C@@H](CC(C)C)C(=O)N[C@H](CC(C)C)C(=O)N[C@@H](CCCCN)C(=O)N[C@H](CC(C)C)C(=O)N[C@@H](CC(C)C)C(=O)N[C@@H](CCCCN)C(N)=O [Peptide 23]
- hemolytic activity (in words) [2]: devoid of hemolytic activity
